Results taken from US10689354B2, “Aminoazole derivative” (Teijin Pharma Limited, priority 2015, dated 2020).

Key:
human androgen receptor = target: T1, human androgen receptor (Homo sapiens, UniProt P10275); test: Reporter assay of an androgen receptor responsive sequence (luciferase, transiently transfected HEK293 cells); assay type: cell-based; conditions: 24 hours incubation, relative to activity of 100 nM DHT, read-out: AR transcriptive activity (pEC50) (converted)
T1 construct: expressed in transfected cells; host or cells: HEK293
T1 sequence (P10275 1-920): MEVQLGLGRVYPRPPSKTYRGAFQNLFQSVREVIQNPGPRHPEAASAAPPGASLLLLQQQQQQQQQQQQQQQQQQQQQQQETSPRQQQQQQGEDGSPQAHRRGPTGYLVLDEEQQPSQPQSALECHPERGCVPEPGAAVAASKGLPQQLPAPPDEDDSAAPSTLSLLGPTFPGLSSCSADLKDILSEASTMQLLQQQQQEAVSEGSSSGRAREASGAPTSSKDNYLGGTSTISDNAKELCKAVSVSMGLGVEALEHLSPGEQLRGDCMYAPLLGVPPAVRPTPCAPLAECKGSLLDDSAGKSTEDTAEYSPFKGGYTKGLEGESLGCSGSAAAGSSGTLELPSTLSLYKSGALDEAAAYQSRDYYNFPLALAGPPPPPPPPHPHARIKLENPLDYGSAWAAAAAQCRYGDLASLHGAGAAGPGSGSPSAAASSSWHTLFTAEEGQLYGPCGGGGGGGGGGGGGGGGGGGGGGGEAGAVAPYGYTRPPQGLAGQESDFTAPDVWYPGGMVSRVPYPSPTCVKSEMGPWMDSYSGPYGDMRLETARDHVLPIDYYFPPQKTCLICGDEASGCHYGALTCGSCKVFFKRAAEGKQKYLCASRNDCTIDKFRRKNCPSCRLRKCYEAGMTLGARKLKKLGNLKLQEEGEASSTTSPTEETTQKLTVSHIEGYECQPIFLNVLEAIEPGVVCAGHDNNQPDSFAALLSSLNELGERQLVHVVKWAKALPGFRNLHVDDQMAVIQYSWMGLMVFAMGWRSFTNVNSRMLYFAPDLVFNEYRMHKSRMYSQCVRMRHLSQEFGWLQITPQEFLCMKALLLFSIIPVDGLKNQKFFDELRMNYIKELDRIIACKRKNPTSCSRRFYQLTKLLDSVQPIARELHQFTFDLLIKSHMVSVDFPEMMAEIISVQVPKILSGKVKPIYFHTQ
In short: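 Agonism scored as pEC50, fitted by 4-parameter curve against the response to 100 nM DHT, from dual-luciferase readout after 24 h compound treatment. Cells were HEK293 co-transfected (3 h) with human AR expression vector, androgen-responsive firefly reporter and Renilla control, in charcoal-stripped serum.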

[1] = target: T2, androgen receptor (AR-LBD) (Rattus norvegicus, UniProt P15207); test: Evaluation of androgen receptor affinity (PolarScreen Androgen Receptor Competitor Assay Kit, Red; fluorescence polarization); conditions: 22° C. for 5 hours, relative to binding rate of 1 μM DHT, read-out: AR affinity (pEC50) (converted)
T2 construct: 5 μL of 2×AR-LBD/Fluoromone AL Red Complex contained in the kit; purchased Invitrogen
T2 sequence (P15207 651-882 limits assumed): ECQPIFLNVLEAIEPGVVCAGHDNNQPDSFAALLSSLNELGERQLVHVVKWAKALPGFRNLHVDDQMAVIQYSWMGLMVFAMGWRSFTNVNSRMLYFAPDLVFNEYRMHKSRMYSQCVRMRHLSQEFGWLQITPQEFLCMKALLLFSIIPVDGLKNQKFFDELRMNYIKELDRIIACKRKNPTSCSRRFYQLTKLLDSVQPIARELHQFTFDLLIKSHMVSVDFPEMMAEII
In short: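 Duplicate wells of test compound were mixed with the kit's rat AR-LBD–Fluoromone AL Red tracer complex and left 5 hours at 22 °C before polarization was read. A 4-parameter fit gave pEC50, with binding rate referenced to 1 μM dihydrotestosterone.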

Compound | EC50 (human androgen receptor) [µM] | EC50 [1] [µM]
Cc1sc(N(Cc2ccccc2)c2ccc(OC(F)F)cc2)nc1C(=O)NS(C)(=O)=O [Compound 91, 2-[N-benzyl-4-(difluoromethoxy)anilino]-5-methyl-N-methylsulfonyl-thiazole-4-carboxamide] | 1.58 | 0.1
Cc1oc(N(Cc2ccc(Cl)c(Cl)c2)c2ccc(C#N)cc2)nc1C(=O)NS(C)(=O)=O [Compound 608, 2-[4-cyano-N-[(3,4-dichlorophenyl)methyl]anilino]-5-methyl-N-methylsulfonyl-oxazole-4-carboxamide] | 0.316 | 0.0316
Cc1sc(N(Cc2ccc(F)cc2OC(F)F)c2ccc(C#N)cc2)nc1C(=O)NS(C)(=O)=O [Example 176, 2-[4-cyano-N-[[2-(difluoromethoxy)-4-fluoro-phenyl]methyl]anilino]-5-methyl-N-methylsulfonyl-thiazole-4-carboxamide] | 0.501 | 0.0631
Cc1sc(N(CCc2ccc3c(c2)OCO3)Cc2ccccc2)nc1C(=O)NS(C)(=O)=O [Compound 708, 2-[2-(1,3-benzodioxol-5-yl)ethyl-benzyl-amino]-5-methyl-N-methylsulfonyl-thiazole-4-carboxamide] | 0.501 | 0.0794
COc1ccc(CN(c2ccc(C#N)cc2)c2nc(C(=O)NS(C)(=O)=O)c(C)s2)nn1 [Compound 516, 2-[4-cyano-N-[(6-methoxypyridazin-3-yl)methyl]anilino]-5-methyl-N-methylsulfonyl-thiazole-4-carboxamide] | 6.31 | > 2
Cc1sc(N(CC2CC3CCC2C3)c2ccc(C#N)cc2)nc1C(=O)NS(C)(=O)=O (centres unmarked) [Compound 447, 2-[4-cyano-N-(norbornan-2-ylmethyl)anilino]-5-methyl-N-methylsulfonyl-thiazole-4-carboxamide] | 2.51 | 0.0501
Cc1sc(N(Cc2ccc(Br)nc2)c2ccc(C#N)cc2)nc1C(=O)NS(C)(=O)=O [Compound 496, 2-[N-[(6-bromo-3-pyridyl)methyl]-4-cyano-anilino]-5-methyl-N-methylsulfonyl-thiazole-4-carboxamide] | 0.158 | 0.126

Further lines, results first:

EC50 (human androgen receptor) [µM] | EC50 [1] [µM] | Compound
0.0316 | 0.0316 | CS(=O)(=O)NC(=O)c1nc(N(Cc2cccc(Cl)c2)c2ccc(C#N)cc2)sc1Br [Example 247, 5-bromo-2-[N-[(3-chlorophenyl)methyl]-4-cyano-anilino]-N-methylsulfonyl-thiazole-4-carboxamide]
0.0398 | 0.0501 | CS(=O)(=O)NC(=O)c1nc(N(Cc2ccc(F)cc2)c2ccc(C#N)cc2)sc1Cl [Example 262, 5-chloro-2-[4-cyano-N-[(4-fluorophenyl)methyl]anilino]-N-methylsulfonyl-thiazole-4-carboxamide]
0.158 | 0.02 | Cc1sc(N(Cc2ccc(OC(F)(F)F)c(F)c2)c2ccc(C#N)cc2)nc1C(=O)NS(C)(=O)=O [Compound 420, 2-[4-cyano-N-[[3-fluoro-4-(trifluoromethoxy)phenyl]methyl]anilino]-5-methyl-N-methylsulfonyl-thiazole-4-carboxamide]
1.26 | 0.1 | Cc1sc(N(Cc2ccc(-c3ccc(F)cc3)cn2)c2ccc(C#N)cc2)nc1C(=O)NS(C)(=O)=O [Compound 595, 2-[4-cyano-N-[[5-(4-fluorophenyl)-2-pyridyl]methyl]anilino]-5-methyl-N-methylsulfonyl-thiazole-4-carboxamide]
0.0251 | 0.0316 | Cc1sc(N(Cc2ccc(Br)c(F)c2)c2ccc(C#N)cc2)nc1C(=O)NS(C)(=O)=O [Example 181, 2-[N-[(4-bromo-3-fluoro-phenyl)methyl]-4-cyano-anilino]-5-methyl-N-methylsulfonyl-thiazole-4-carboxamide]
0.0316 | 0.0316 | Cc1sc(N(Cc2ccc(OC(F)F)cc2)c2ccc(C#N)cc2)nc1C(=O)NS(C)(=O)=O [Compound 41, 2-[4-cyano-N-[[4-(difluoromethoxy)phenyl]methyl]anilino]-5-methyl-N-methylsulfonyl-thiazole-4-carboxamide]
